Test results published in paper PMC9008879, “Inhibition of CYP3A-mediated Midazolam Metabolism by Kaempferia Parviflora” (Food Safety, 2022).

How the values were obtained:
[1] = test system: CYP3A; assay: Direct inhibition of CYP3A-mediated MDZ 1'-hydroxylation activity in human liver microsomes; type: in vitro ADME; settings: HLM, 10 µM MDZ; 5,7-DMF 0.03-30 µM, 3,5,7,3',4'-PMF 0.02-20 µM, no pre-incubation
Protocol: An in vitro study was carried out to investigate the inhibitory effects of KP extract, 5,7-DMF, and 3,5,7,3’,4’-PMF on CYP3A-mediated MDZ 1’-hydroxylation (MDZ 1’-OH) activity.
The reaction mixtures, each with a total volume of 200 µL, consisting of 100 µg pooled HLM, 10 µM MDZ, and a nicotinamide adenine dinucleotide phosphate (NADPH)-generating system (1 mM NADPH, 8 mM glucose 6-phosphate, and 0.5U glucose 6-phosphate dehydrogenase) in 80 mM phosphate buffer (pH 7.4), were incubated at 37°C for 5 min in the presence of KP extract (40-80 µg/ml), 5,7-DMF (0.03-30 µM), or 3,5,7,3’,4’-PMF (0.02-20 µM). […] After centrifugation at 20,800 × g for 10 min at 4°C, the supernatant was injected into an HPLC apparatus equipped with a CAPCELLPAK C18 SG120 column (4.6 mm × 250 mm, Shiseido) and 1’-hydroxymidazolam was analyzed according to a previous report[20]^,[21]^). Control activity was determined under the same conditions with a reaction mixture containing water, 1% methanol, or 1% acetonitrile instead of KP extract, 5,7-DMF, or 3,5,7,3’,4’-PMF. Results were expressed as a percentage of each control activity. The inhibition mode and inhibition constant (Ki) values of KP extract on MDZ 1’-OH activity were calculated using nonlinear regression analysis using GraphPad Prism 7.03 (GraphPad Software Inc., La Jolla, CA, USA).

[2] = test system: CYP3A; assay: Pre-incubation study (time-dependent / mechanism-based inhibition) of MDZ 1'-OH activity in human liver microsomes; type: in vitro ADME; settings: for Change of MDZ 1'-OH activity after pre-incubation: HLM, pre-incubation 0-30 min with or without NADPH, KP extract 120 µg/ml, 5,7-DMF 30 µM, 3,5,7,3',4'-PMF 20 µM; for KI (inactivation) / kinact / kinact/KI: human, human liver microsomes, probe midazolam (MDZ) 10 µM, 1'-hydroxylation, HLM + NADPH, 10-fold dilution; for KI (inactivation): pre-incubation 5-30 min, read-out: KI (inhibitor concentration causing half-maximal inactivation); for kinact / kinact/KI: pre-incubation; for kinact: read-out: kinact (maximal inactivation rate constant) (converted); for kinact/KI: read-out: kinact/KI (efficiency of inactivation) (converted)
Protocol: Pre-incubation studies were performed to determine whether the metabolic intermediates produced by KP ingredients cause an MBI that inactivates CYP3A. KP extract (120 µg/ml), 5,7-DMF (30 µM), or 3,5,7,3’,4’-PMF (20 µM) was pre-incubated with HLM at 37°C for 10, 20, or 30 min, in the presence or absence of a NADPH-generating system. After the pre-incubation step, MDZ was added, and MDZ 1’-OH activity was assayed as described above.
In addition, another assay was designed to minimize the direct inhibition of CYP3A by KP ingredients by diluting the contents of the inactivation mixture 10-fold. As a primary incubation mixture, KP extract (30-120 µg/ml), 5,7-DMF (6-30 µM), or 3,5,7,3’,4’-PMF (5-20 µM) were pre-incubated in the presence of HLM and a NADPH-generating system at 37°C. Pre-incubation times were 5, 10, 15, or 20 min for KP extract, and 5, 10, 20, or 30 min for 5,7-DMF and 3,5,7,3’,4’-PMF. At determined time points, an aliquot of 50 µL of the primary reaction mixture was moved to 450 µL of the secondary incubation mixture containing 10 µM MDZ, and further incubated for 5 min. The oxidation of MDZ was analyzed as described above.
The decrease in the natural logarithm of the % residual MDZ 1’-OH activity against pre-incubation time was plotted for each inhibitor concentration, and the apparent inactivation rate constant (Kobs) values were described as the negative slopes of the lines. The maximal inactivation rate constant (kinact) and the inhibitor concentration causing half-maximal inactivation (KI) were estimated by double-reciprocal plot of the Kobs against the inhibitor concentration. The efficiency of inactivation was calculated as the ratio of kinact to KI.

[3] = test system: CYP3A4; parameters: method as in PMID 17709371; settings: HLM and recombinant microsomes; cited from earlier work
[4] = test system: CYP3A; parameters: method as in PMID 29550915; settings: mice, 5,7-DMF for ten days; cited from earlier work

SMILES	Direct inhibition of MDZ 1'-OH activity [1]	Change of MDZ 1'-OH activity after pre-incubation [2]	KI (inactivation) [2] [µM]	kinact [2] [s⁻¹]	kinact/KI [2] [M⁻¹ s⁻¹]	Metabolizing CYP enzymes [3]	AUC of MDZ [4]	Elimination half-life (t1/2) of MDZ [4]	Hepatic CYP3A expression [4]
COc1cc(OC)c2c(=O)c(OC)c(-c3ccc(OC)c(OC)c3)oc2c1 [3,5,7,3’,4’-PMF, 3,5,7,3’,4’-pentamethoxyflavone]	did not inhibit	time- and NADPH-dependent decrease	25.5	2.67e-05	1.05				
COc1cc(OC)c2c(=O)cc(-c3ccccc3)oc2c1 [5,7-DMF, 5,7-dimethoxyflavone]	did not inhibit	time- and NADPH-dependent decrease	10.7	0.000433	40	not metabolized by CYP3A4, but by CYP1A1 and CYP1A2	increased	increased	decreased
